The record followed here is patent US10561708B2, “Anti-tumor therapy” (The University of Chicago, priority 2013, dated 2020).

Each structure is given as a SMILES string.

One series relates to CWR-22RV1 cells. In words: Clonogenic survival with ionizing radiation with or w/o SAR302503. The conditions noted are these: 0.5 μM SAR302503, 2 or 5 Gy. The format is cell-based. On the procedure:
(§1) These cell lines were characterized for relative radioresistance using a clonogenic assay. Briefly, the cells were cultured in their appropriate media at 5% CO2 at 37° C. Optimal cell plating concentrations for a p60 dish were determined for each cell line. The majority of cell lines were plated in triplicate at concentrations of 100 cells/plate for control, 1000 cells/plate for 2 Gy, 2000 cells/plate for 5 Gy, and 3000 cells/plate for 8 Gy. Plates were irradiated 24 hours after plating with either 2, 5, or 8 Gy using a irradiated using a Nordion Gammacell ^60Co irradiator operating at a dose rate of ˜18 Gy/minute. Cells were allowed to grow for 10-21 days (depending on the cell line) until colonies were >50 cells. Plates were then fixed with formalin and stained with crystal violet. Colonies with more than 50 cells were counted. Clonogenic survival for Clonogenic data was obtained for all cell lines tested in screen.
(§2) To determine the potential therapeutic value of targeting the JAK/STAT pathway in prostate cancer, the cells were exposed to the specific JAK2 inhibitor SAR302503. Since it is expected that the greatest value of inhibiting the JAK/STAT pathway is in combination with other toxic insults we evaluated the effect of ionizing radiation used in the treatment of CRPC, and SAR302503 in the genetically related CWR lines (FIG. 2). […]

For another series, the system named is CWR-R1 cells. The description is as above. The format is cell-based. The conditions noted are these: 0.5 μM SAR302503, 2 or 5 Gy. On the procedure:
as §1, §2

The next series relates to CWR-22RV1 xenografts. In words: Xenograft tumor growth in nude mice. The format is in vivo. As to the method:
(§3) To determine the potential therapeutic value of targeting the JAK/STAT pathway in prostate cancer, the cells were exposed to the specific JAK2 inhibitor SAR302503. Since it is expected that the greatest value of inhibiting the JAK/STAT pathway is in combination with other toxic insults we evaluated the effect of ionizing radiation used in the treatment of CRPC, and SAR302503 in the genetically related CWR lines (FIG. 2). Cells were plated in p60 dishes with or w/o 0.5 μM of SAR302503 and irradiated with 2 or 5 Gy (or left un-irradiated). Colonies counting and estimation of survival fractions were performed as described elsewhere (Khodarev et. al., 2007, Cancer Research). […] To extend these observations in preclinical animal models we established xenografts of CWR-R1 and CWR-22RV1. For this purpose 10^7 cells were injected in the right flank of each nude mice (5 animals per group) and when tumors reached 200 mm^3 in volume mice were either left un-treated, or treated with SAR302503 (120 mg/kg, once a day, 4 days) or irradiated locally (2×10 Gy) or subjected to combined treatments with SAR302503 and IR. […] At the same tumors treatment by SAR302503 alone led to the 4-days growth delay compared with control tumors. These effects were not observed in CWRR1. Molecular differences between two tumors are currently under investigation. The difference between CWR-R1 and CWR-22RV1 is especially noteworthy since they are isogenic, castrate resistant, and carry both native and splice variant androgen receptor, which is reminiscent of the findings in human prostate cancer specimens.

Another series deals with CWR-R1 xenografts. The experiment in a line: Xenograft tumor growth in nude mice. The conditions noted are these: CWRR1. The format is in vivo. As to the method:
as §3

In the case of `Cc1cnc(Nc2ccc(OCCN3CCCC3)cc2)nc1Nc1cccc(S(=O)(=O)NC(C)(C)C)c1` [SAR302503], the “enhancement of effects of IR (survival fraction, colonies)” value with CWR-22RV1 cells is reported as “significantly enhanced”. Also, the “enhancement of cytotoxic activity of IR (survival fraction, colonies)” value in the series with CWR-R1 cells was “not enhanced”. The “tumor growth, combined treatment with IR” value is listed as “significant suppression of tumor growth” with CWR-22RV1 xenografts (120 mg/kg once a day 4 days + IR 2×10 Gy, by day 9 after beginning of treatment) and “not observed” in the series with CWR-R1 xenografts (120 mg/kg once a day 4 days + IR 2×10 Gy). The “growth delay compared with control tumors, inhibitor alone” value in the series with CWR-22RV1 xenografts (120 mg/kg, once a day, 4 days) is listed as 4 days; in the series on CWR-R1 xenografts (120 mg/kg, once a day, 4 days), “not observed”.
